Laboratory results reported in patent US9101616B2, “Aryl substituted carboxamide derivatives as calcium or sodium channel blockers” (RaQualia Pharma Inc., priority 2009, dated 2015).

These compounds were tested against T1, human T-type channel alpha-1H (CaV 3.2) (Homo sapiens, UniProt O95180) (assay: Ca2+ Influx Assay (cell-based fluorescent, FDSS)). Details: HEK 293 cells expressing human CaV 3.2.
T1 construct: expressed in transfected cells; host or cells: HEK 293
T1 sequence (O95180 whole entry): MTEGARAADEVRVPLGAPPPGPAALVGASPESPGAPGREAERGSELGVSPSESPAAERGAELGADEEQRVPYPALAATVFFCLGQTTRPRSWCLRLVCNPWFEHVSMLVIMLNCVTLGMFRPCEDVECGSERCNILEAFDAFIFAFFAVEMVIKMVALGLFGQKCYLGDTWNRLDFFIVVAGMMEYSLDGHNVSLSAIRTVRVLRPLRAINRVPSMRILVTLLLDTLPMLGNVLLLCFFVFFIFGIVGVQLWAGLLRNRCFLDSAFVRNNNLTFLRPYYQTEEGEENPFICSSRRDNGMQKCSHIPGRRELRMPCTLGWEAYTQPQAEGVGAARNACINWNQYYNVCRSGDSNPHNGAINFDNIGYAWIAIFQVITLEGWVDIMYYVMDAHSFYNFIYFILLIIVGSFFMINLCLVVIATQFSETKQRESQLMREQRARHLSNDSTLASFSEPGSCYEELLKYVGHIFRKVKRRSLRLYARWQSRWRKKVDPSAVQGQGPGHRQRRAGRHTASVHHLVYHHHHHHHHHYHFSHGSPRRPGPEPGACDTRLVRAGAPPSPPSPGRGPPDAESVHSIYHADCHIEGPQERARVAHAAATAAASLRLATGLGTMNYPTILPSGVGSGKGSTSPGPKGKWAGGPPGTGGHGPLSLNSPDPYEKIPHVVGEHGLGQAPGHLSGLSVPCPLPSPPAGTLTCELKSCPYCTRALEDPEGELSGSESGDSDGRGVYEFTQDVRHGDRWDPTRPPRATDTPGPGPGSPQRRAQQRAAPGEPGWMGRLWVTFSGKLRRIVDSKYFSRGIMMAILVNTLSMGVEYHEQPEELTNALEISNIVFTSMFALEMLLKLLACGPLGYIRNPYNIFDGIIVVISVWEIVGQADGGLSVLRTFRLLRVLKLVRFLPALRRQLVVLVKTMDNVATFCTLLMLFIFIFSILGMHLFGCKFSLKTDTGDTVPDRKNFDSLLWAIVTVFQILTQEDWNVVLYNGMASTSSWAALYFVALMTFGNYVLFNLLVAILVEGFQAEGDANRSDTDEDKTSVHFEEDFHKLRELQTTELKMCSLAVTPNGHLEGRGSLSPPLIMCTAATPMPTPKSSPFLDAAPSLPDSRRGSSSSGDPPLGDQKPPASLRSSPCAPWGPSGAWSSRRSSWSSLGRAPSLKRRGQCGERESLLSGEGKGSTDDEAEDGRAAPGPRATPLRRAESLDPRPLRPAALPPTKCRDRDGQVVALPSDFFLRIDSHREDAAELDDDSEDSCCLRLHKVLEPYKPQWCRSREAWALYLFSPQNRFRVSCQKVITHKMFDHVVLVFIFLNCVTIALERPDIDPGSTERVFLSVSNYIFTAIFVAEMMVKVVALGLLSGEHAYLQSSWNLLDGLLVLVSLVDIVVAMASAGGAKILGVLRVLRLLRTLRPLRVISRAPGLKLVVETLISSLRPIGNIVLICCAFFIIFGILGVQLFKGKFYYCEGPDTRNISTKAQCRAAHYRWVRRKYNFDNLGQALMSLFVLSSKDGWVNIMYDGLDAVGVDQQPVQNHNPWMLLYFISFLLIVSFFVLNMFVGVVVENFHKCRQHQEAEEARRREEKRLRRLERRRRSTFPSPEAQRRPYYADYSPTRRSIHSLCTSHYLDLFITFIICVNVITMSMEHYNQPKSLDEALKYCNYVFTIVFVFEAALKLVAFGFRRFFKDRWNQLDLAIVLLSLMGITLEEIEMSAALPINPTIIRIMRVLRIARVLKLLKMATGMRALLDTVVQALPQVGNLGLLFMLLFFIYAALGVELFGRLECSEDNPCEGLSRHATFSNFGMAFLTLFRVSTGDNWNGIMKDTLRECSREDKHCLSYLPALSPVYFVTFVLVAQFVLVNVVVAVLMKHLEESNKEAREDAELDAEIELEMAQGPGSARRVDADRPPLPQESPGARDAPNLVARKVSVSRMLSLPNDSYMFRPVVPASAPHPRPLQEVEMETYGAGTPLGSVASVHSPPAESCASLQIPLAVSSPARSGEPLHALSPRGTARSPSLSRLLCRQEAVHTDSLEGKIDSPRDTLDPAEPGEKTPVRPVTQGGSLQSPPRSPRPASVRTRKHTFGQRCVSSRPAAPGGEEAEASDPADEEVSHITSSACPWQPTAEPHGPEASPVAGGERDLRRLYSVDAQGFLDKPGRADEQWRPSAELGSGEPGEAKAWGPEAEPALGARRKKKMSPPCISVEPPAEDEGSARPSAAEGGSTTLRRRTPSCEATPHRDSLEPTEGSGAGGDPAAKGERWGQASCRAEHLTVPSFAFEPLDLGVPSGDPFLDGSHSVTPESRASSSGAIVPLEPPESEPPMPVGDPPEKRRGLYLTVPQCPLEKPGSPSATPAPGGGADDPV
Method: Inhibition of T-type calcium channel activity was determined by cell-based flu-orescent Ca^2+ influx assay, in which potassium ionophore was added to decrease resting membrane potential and extra-cellular high-K^+ stimulation was used to modulate the membrane potential of the cell. The changes in fluorescent signal were monitored by the cell imaging technology by Hamamatsu Photonics's Functional Drug Screening System (FDSS).
HEK 293 cells expressing the human T-type channel alpha-1H (CaV 3.2) were maintained in DMEM supplemented with 10% heat-inactivated FBS, 100 units/ml Penicillin, 100 microg/ml Streptomycin, 150 microg/ml Zeocin, 300 microg/ml Geneticin. The cells were grown in a 5% CO2 humidified incubator at 37° C.
• 1. Cells were harvested and seeded in a poly-D-lysine coated black-sided clear bottom 384-well plate at density of 10,000 cells/well at 24 hours prior to assay. • 2. Incubate at 37° C. in 5% CO2. Day Two: • 1. Wash each well with assay buffer (see below) and leave 20 RI using plate washer, ELx-405 Select CW (BIO-TEK). • 2. Add 20 μL of assay buffer containing 6 μM Fluo-4-AM (Molecular Probes) and 0.005% Pluronic F-127 to each well. • 3. Incubate the plate at 37° C. for 1 hour. • 4. Wash each well assay buffer (see below) and leave 20 μl using plate washer, ELx-405 Select CW (BIO-TEK). • 5. Add 10 μl of compound solution into each well by FDSS6000 and leave the plate for 4.5 min, and then add 10 μl of potassium ionophore solution. • 6. Add 20 μl of high-K^+ depolarizing solution (see below) and monitor the change of fluorescent signal.
The IC50 values for compounds of the present invention were determined from 7-point dose-response studies. Curves were generated using the average of duplicate wells for each data point. Finally, the IC50 values are calculated with the best-fit dose curve determined by XLfit.
For `C[C@@H](NC(=O)C1CC1c1cc2cc(F)ccc2[nH]1)c1cnc(OCC(F)(F)F)cn1` (stereo in doubt) [Example 171, trans-2-(5-fluoro-1H-indol-2-yl)-N-((R)-1-(5-(2,2,2-trifluoroethoxy)pyrazin-2-yl)ethyl)cyclopropanecarboxamide], the IC50 was ≤ 300 nM. `C[C@@H](NC(=O)[C@@H]1C[C@H]1c1cccc2cc[nH]c12)c1ccc(OCC(F)(F)F)cn1` (relative stereo) [Example 276, (1R*,2R*)-2-(1H-indol-7-yl)-N-((R)-1-(5-(2,2,2-trifluoroethoxy)pyridin-2-yl)ethyl)cyclopropanecarboxamide] was tested, and the IC50 was ≤ 300 nM. With `C[C@@H](NC(=O)[C@H]1C[C@@H]1c1cccc2cc[nH]c12)c1cnc(OCC(F)(F)F)cn1` (relative stereo) [Example 322, (1S*,2S*)-2-(1H-indol-7-yl)-N-((R)-1-(5-(2,2,2-trifluoroethoxy)pyrazin-2-yl)ethyl)cyclopropanecarboxamide] the IC50 was ≤ 300 nM. In the case of `C[C@@H](NC(=O)[C@@H]1C[C@H]1c1c[nH]c2ccccc12)c1ccc(OCC(F)(F)F)cn1` (relative stereo) [Example 134, (1R*,2R*)-2-(1H-indol-3-yl)-N-((R)-1-(5-(2,2,2-trifluoroethoxy)pyridin-2-yl)ethyl)cyclopropanecarboxamide], the IC50 is reported as ≤ 300 nM. With `C[C@@H](NC(=O)COc1ccc(C(F)(F)F)cc1)c1ccc(OCC(F)(F)F)cn1` [Example 3, (R)-N-(1-(5-(2,2,2-trifluoroethoxy)pyridin-2-yl)ethyl)-2-(4-(trifluoromethyl)phenoxy)acetamide] the IC50 was ≤ 300 nM. With `C[C@@H](NC(=O)C1CC1c1cnc2ccccc2c1)c1ccc(OCC(F)(F)F)nc1` (stereo in doubt) [Example 211, trans-2-(quinolin-3-yl)-N-((R)-1-(6-(2,2,2-trifluoroethoxy)pyridin-3-yl)ethyl)cyclopropanecarboxamide] the IC50 was ≤ 300 nM. For `COc1ccc([C@H]2C[C@@H]2C(=O)N[C@H](C)c2ccc(OCC3CC3)cn2)cc1C` (relative stereo) [Example 307, (1S*,2S*)-N-((R)-1-(5-(cyclopropyl-methoxy)pyridin-2-yl)ethyl)-2-(4-methoxy-3-methylphenyl) cyclopropanecarboxamide], the IC50 was ≤ 300 nM. For `C[C@@H](NC(=O)[C@H]1C[C@@H]1c1c(F)cc(F)cc1F)c1cnc(OCC(F)(F)F)cn1` (relative stereo) [Example 271, (1S*,2S*)-N-((R)-1-(5-(2,2,2-trifluoroethoxy)pyrazin-2-yl)ethyl)-2-(2,4,6-trifluorophenyl) cyclopropanecarboxamide], the IC50 was ≤ 300 nM. In the case of `COc1ccc([C@H]2C[C@@H]2C(=O)N[C@H](C)c2cnc(OCC(F)(F)F)cn2)cc1C` (relative stereo) [Example 309, (1S*,2S*)-2-(4-methoxy-3-methylphenyl)-N-((R)-1-(5-(2,2,2-trifluomethoxy)pyrazin-2-yl)ethyl)cyclopropanecarboxamide], the IC50 is reported as ≤ 300 nM. With `Cc1cccc([C@H]2C[C@@H]2C(=O)N[C@H](C)c2ccc(OCC3CC3)cn2)c1` (relative stereo) [Example 267, (1S*,2S*)-N-((R)-1-(5-(cyclopropylmethoxy)pyridin-2-yl)ethyl)-2-m-tolylcyclopropanecarboxamide] the IC50 was ≤ 300 nM. `C[C@@H](NC(=O)[C@@H]1C[C@H]1c1cc2ccccc2[nH]1)c1ccc(OCC(F)(F)F)nc1` (relative stereo) [Example 224, (1R*,2R*)-2-(1H-indol-2-yl)-N-((R)-1-(6-(2,2,2-trifluoroethoxy)pyridin-3-yl)ethyl)cyclopropanecarboxamide] was tested, and the IC50 was ≤ 300 nM. With `C[C@@H](NC(=O)[C@H]1C[C@@H]1c1cccc2cc[nH]c12)c1ccc(OCC(F)(F)F)cn1` (relative stereo) [Example 275, (1S*,2S*)-2-(1H-indol-7-yl)-N-((R)-1-(5-(2,2,2-trifluoroethoxy)pyridin-2-yl)ethyl)cyclopropanecarboxamide] the IC50 was ≤ 300 nM. `COc1ccc([C@H]2C[C@@H]2C(=O)N[C@H](C)c2ccc(OCC(F)(F)F)cn2)cc1` (relative stereo) [Example 259, (1S*,2S*)-2-(4-methoxyphenyl)-N-((R)-1-(5-(2,2,2-trifluoroethoxy)pyridin-2-yl)ethyl)cyclopropanecarboxamide] was tested, and the IC50 was ≤ 300 nM. With `C[C@@H](NC(=O)C1CC1c1ccc2ncccc2c1)c1ccc(OCC(F)(F)F)nc1` (stereo in doubt) [Example 207, trans-2-(quinolin-6-yl)-N-((R)-1-(6-(2,2,2-trifluoroethoxy)pyridin-3-yl)ethyl)cyclopropanecarboxamide] the IC50 was ≤ 300 nM. In the case of `C[C@@H](NC(=O)[C@@H]1C[C@H]1c1nc2cc(F)ccc2[nH]1)c1ccc(OCC(F)(F)F)nc1` (relative stereo) [Example 289, (1R*,2R*)-2-(5-fluoro-1H-benzo[d]imidazol-2-yl)-N-((R)-1-(6-(2,2,2-trifluoroethoxy)pyridin-3-yl)ethyl) cyclopropanecarboxamide], the IC50 is reported as ≤ 300 nM. In the case of `COc1cccc([C@H]2C[C@@H]2C(=O)N[C@H](C)c2ccc(OCC(F)(F)F)cn2)c1` (relative stereo) [Example 258, (1S*,2S*)-2-(3-methoxyphenyl)-N-((R)-1-(5-(2,2,2-trifluoroethoxy)pyridin-2-yl)ethyl)cyclopropanecarboxamide], the IC50 is reported as ≤ 300 nM. In the case of `C[C@@H](NC(=O)[C@H]1C[C@@H]1c1ccc(OCc2ccccc2)cc1)c1ccc(OCC(F)(F)F)cn1` (relative stereo) [Example 237, (1S*,2S*)-2-(4-(benzyloxy)phenyl)-N-((R)-1-(5-(2,2,2-trifluoroethoxy)pyridin-2-yl)ethyl)cyclopropanecarboxamide], the IC50 is reported as ≤ 300 nM. In the case of `C[C@@H](NC(=O)C1CC1c1ccc2ccccc2n1)c1ccc(OCC(F)(F)F)nc1` (stereo in doubt) [Example 205, trans-2-(quinolin-2-yl)-N-((R)-1-(6-(2,2,2-trifluoroethoxy)pyridin-3-yl)ethyl)cyclopropanecarboxamide], the IC50 is reported as ≤ 300 nM. `C[C@@H](NC(=O)C1CC1c1ccc2cnn(C)c2c1)c1ccc(OCC(F)(F)F)nc1` (stereo partly drawn) [Example 228, trans-2-(1-methyl-1H-indazol-6-yl)-N-((R)-(6-(2,2,2-trifluoroethoxy)pyridin-3-yl)ethyl)cyclopropanecarboxamide] was tested, and the IC50 was ≤ 300 nM. In the case of `C[C@@H](NC(=O)[C@H]1C[C@@H]1c1cccc2cc[nH]c12)c1ccc(OCC2CC2)cn1` (relative stereo) [Example 316, (1S*,2S*)-N-((R)-1-(5-(cyclopropylmethoxy)pyridin-2-yl)ethyl)-2-(1H-indol-7-yl)cyclopropanecarboxamide], the IC50 is reported as ≤ 300 nM. For `C[C@@H](NC(=O)[C@H]1C[C@@H]1c1cccc(OCc2ccccc2)c1)c1ccc(OCC(F)(F)F)cn1` (stereo in doubt) [Example 240, (1S*,2S*)-2-(3-(benzyloxy)phenyl)-N-((R)-1-(5-(2,2,2-trifluoroethoxy)pyridin-2-yl)ethyl)cyclopropanecarboxamide], the IC50 was ≤ 300 nM. For `C[C@@H](NC(=O)C1CC1c1cc(F)cc(F)c1)c1cnc(OCC(F)(F)F)cn1` (stereo in doubt) [Example 194, trans-2-(3,5-difluorophenyl)-N-((R)-1-(5-(2,2,2-trifluoroethoxy)pyrazin-2-yl)ethyl)cyclopropanecarboxamide], the IC50 was ≤ 300 nM.
